Data: patent US9682151B2, “Peptides whose uptake in cells is controllable” (The Regents of the University of California, priority 2009, dated 2017)

Legend:
[1] = Fluorescence uptake of Cy5-labeled selective transport molecules in tumor and muscle (Table 2), MDA-MB 435; format: in vivo, mice; conditions: nude, mouse, in vivo, iv; MDA-MB 435 xenograft
Description: (§1) Xenografts with HT1080 human fibroscarcoma cells (ATCC) or MDA-MB 435 human melanoma cells were used. Allografts were generated in the lab with 8119 murine mammary adenocarcinoma cells and B16F10 murine melanoma cells. 1×10^6 cells (either 8119 or BI6F10) were injected intramuscularly into the left flank of albino C57BL/6 mice. Tumor allografts were monitored until tumor size was approximately 1 cm in largest diameter (approximately 7-10 days).
(§2) Briefly 30 mg tissues was homogenized and heated in SDS buffer, frozen, and then imaged by fluorescence. SUV ((moles/g tissue)/(moles injected/weight of the animal)) values were determined by comparing experimental fluorescence to standard curves derived by peptide spiked tissue processed similarly.
(§3) To test whether selective transport molecules are taken up differentially between tumor and normal tissue, allografts derived from spontaneous mammary adenocarcinoma tumors in transgenic mice (line 8119, MMTV-PyMT) and the murine melanoma cell line B16F10 transplanted into immune competent mice, and human cancer cell lines (MDA-MB 435 melanoma and HT1080 fibrosarcoma) xenografted into nude mice, were imaged after intravenous injection of Cy5-labeled selective transport molecules and sufficient time for elimination of uncleaved selective transport molecules. Cy5 was chosen as a labeling marker because of its reduced tissue absorption in the near infrared range.

[2] = test system: MDA-MB 435 human melanoma cells; test: as above; format: in vivo, mice
Description: as §1, §2, §3

[3] = Fluorescence uptake of Cy5-labeled selective transport molecules in tumor and muscle (Table 2), HT1080; format: in vivo, mice; conditions: nude, mouse, in vivo, iv; HT1080 xenograft
Description: as §1, §2, §3

[4] = test system: HT1080 human fibroscarcoma cells; test: as above; format: in vivo, mice; conditions: HT1080 xenograft
Description: as §1, §2, §3

[5] = Fluorescence uptake of Cy5-labeled selective transport molecules in tumor and muscle (Table 2), 8119; format: in vivo, mice; conditions: albino C57BL/6, mouse, in vivo, iv; 8119 allograft
Description: as §1, §2, §3

[6] = test system: 8119 murine mammary adenocarcinoma cells; test: as above; format: in vivo, mice; conditions: 8119 allograft
Description: as §1, §2, §3

[7] = Fluorescence uptake of Cy5-labeled selective transport molecules in tumor and muscle (Table 2), B16F10; format: in vivo, mice; conditions: albino C57BL/6, mouse, in vivo, iv; B16F10 allograft
Description: as §1, §2, §3

[8] = test system: B16F10 murine melanoma cells; test: as above; format: in vivo, mice; conditions: B16F10 allograft
Description: as §1, §2, §3

[9] = test system: HT1080 cells; test: Residual tumor cell quantification with Alu PCR after guided surgery; format: in vivo, mice; conditions: free 10 nmoles 6 hours, dendrimer 2 nmoles 48 hours prior to surgery
Description: Animals used for quantification of residual tumor cells after surgery were performed on xenograft of HT1080 cells generated as detailed above Animals were anesthetized with 80 mg/kg ketamine and 40 mg/kg midazolam. Following skin incision and retraction, tumors were removed with microsurgical technique using a dissecting microscope (Zeiss, Lumar).
Fluorescence guidance of tumor excision was performed as detailed above for the survival studies with GFP, free selective transport molecule (10 nmoles; 6 hours prior to surgery) or dendrimer selective transport molecule (2 nmoles; 48 hours prior to surgery). For animals in the GFP guidance arm, the surgical field was assessed through the dissecting scope with excitation and emission parameters for GFP. […] Following completion of tumor resection, the remaining surgical bed was resected with at least a 5 mm margin in all contiguous dimensions and analyzed for Alu sequences. Alu PCR analysis of the remaining surgical bed for residual tumor cells were performed. […]
To quantify the efficacy of tumor excision with selective transport molecule guidance, we used Alu PCR to measure residual human (cancer) cells remaining in the tumor bed after surgical excision.

[10] = Stability of pDox by analytical HPLC and mass spectra; format: physicochemical
Description: pDox dendrimers were synthesized with the intent to coat the dendrimers with one pDox and three Cy5s thus making the dendrimers brightly fluorescent in the far-red. The pDox dendrimer samples that were incubated overnight in pH 7.4 and pH 5 buffer as described previously were injected on HPLC/mass spec. HPLC was run using 30-60% Acetonitrile in water with 0.5% TFA gradient on a reverse phased column. Doxorubicin (470-490) and Cy5 (645-655) absorbance peaks were monitored to reveal a new doxorubicin peak in the pH 5 sample. This peak was proven to be free pDox based upon the mass spec. For quantitation, dendrimers were run on another HPLC using a different C18 reverse phase column with a 10-90% ACN gradient column with 0.14% TFA which has a fluorescence detector. […] To quantify the amount of pDox that was hydrolyzed off the dendrimer, 200 pmols of sample was injected and compared to a standard curve of 12, 36, and 60 pmols of pDox alone.
pDox was synthesized and reacted with the dendrimer via hydrazone linker as done with doxorubicin dendrimers discussed earlier. […] The labeling was so low that the absorbance was undetectable by UV Spectroscopy. It was only by fluorescence spectra measured on a plate reader that it was clear pDox was conjugated to the dendrimers but this was not able to be quantified. […]

[11] = test system: HT1080 bearing mice; test: Maximum tolerated dose of pDox

With `CCN1C(=CC=CC=CC2=[N+](CCCCCC(=O)NCCN3C(=O)CC(SC[C@@H](NC(=O)[C@@H](CCCNC(=N)N)NC(=O)[C@@H](CCCNC(=N)N)NC(=O)[C@@H](CCCNC(=N)N)NC(=O)[C@@H](CCCNC(=N)N)NC(=O)[C@@H](CCCNC(=N)N)NC(=O)[C@@H](CCCNC(=N)N)NC(=O)[C@@H](CCCNC(=N)N)NC(=O)[C@@H](CCCNC(=N)N)NC(=O)[C@@H](CCCNC(=N)N)NC(=O)CNC(=O)[C@H](C)NC(=O)[C@H](CSC)NC(=O)CNC(=O)[C@H](CC(C)C)NC(=O)[C@@H]4CCCN4C(=O)COCCNC(=O)[C@@H](CCC(=O)O)NC(=O)[C@@H](CCC(=O)O)NC(=O)[C@@H](CCC(=O)O)NC(=O)[C@@H](CCC(=O)O)NC(=O)[C@@H](CCC(=O)O)NC(=O)[C@@H](CCC(=O)O)NC(=O)[C@@H](CCC(=O)O)NC(=O)[C@@H](CCC(=O)O)NC(=O)CCC(=O)O)C(N)=O)C3=O)c3ccc(S(=O)(=O)[O-])cc3C2(C)C)C(C)(C)c2cc(S(=O)(=O)O)ccc21` (single isomer, unassigned) [Free Selective Transport Molecules] the tissue to tissue ratio [1] was 2.45, the “Ratio (tumor to muscle)” value ([2]; MDA-MB 435 xenograft) was 2.45 and the “Muscle (fluorescence uptake)” value ([2]; MDA-MB 435 xenograft, Cy5 label, intravenous) was 0.29 ± 0.068. For the same molecule, the “Tumor (fluorescence uptake)” value ([2]; MDA-MB 435 xenograft, Cy5 label, intravenous, SUV defined) was 0.17 ± 0.05, the “contrast between tumor and adjacent normal tissue” value ([2]; same figures as the MDA-MB 435 ratios of Table 2) was 2.45 fold and the tissue to tissue ratio [3] was 3.82. For the same molecule, the “Ratio (tumor to muscle)” value [4] was 3.82, the “Muscle (fluorescence uptake)” value ([4]; Cy5 label, intravenous) was 0.11 ± 0.08 and the “Tumor (fluorescence uptake)” value ([4]; Cy5 label, intravenous) was 0.42 ± 0.08. The tissue to tissue ratio [5] was 3.5, the “Ratio (tumor to muscle)” value [6] was 3.5 and the “Muscle (fluorescence uptake)” value ([6]; Cy5 label, intravenous) was 0.11 ± 0.06. For the same molecule, the “Tumor (fluorescence uptake)” value ([6]; Cy5 label, intravenous) was 0.39 ± 0.12, the tissue to tissue ratio [7] was 2.4 and the “Ratio (tumor to muscle)” value [8] was 2.4. For the same molecule, the “Muscle (fluorescence uptake)” value ([8]; Cy5 label, intravenous) was 0.10 ± 0.03, the “Tumor (fluorescence uptake)” value ([8]; Cy5 label, intravenous) was 0.24 ± 0.06 and the “log [DNA] (residual tumor DNA in surgical bed)” value [9] was 4.67±0.33.

For `COc1cccc2c1C(=O)c1c(O)c3c(c(O)c1C2=O)C[C@@](O)(C(=O)CO)C[C@@H]3O[C@H]1C[C@H](N2C=CCC2)[C@H](O)[C@H](C)O1` [pDox, 2-pyrrolino doxorubicin], the stability [10] was “severe stability problems”, the “effect on tumor growth” value ([11]; 0.1 mg/kg) was “significantly slowed tumor growth” and the lethality ([11]; 0.3 and 1 mg/kg, two mice each) was “died within 24 hours”. It also gave a maximum tolerated dose ([11]; HT1080 bearing mice) of 0.1 mg/kg.
